Entries after “also recorded” stand apart in the source; their conditions may differ. Bridge positions count the residues as written; N and C are the ends. Square brackets hold non-standard residues; d marks the D form. I, II: the chains in the order shown. ξ: configuration not given here. ξGly(tetradecyl) = CCCCCCCCCCCCCCC(N)C(=O)O
Experiments:
[1] = Particle size analysis by dynamic light scattering; format: physicochemical; conditions: 1% DMSO in PBS, 600 µg/ml, 25 °C, 173° backscattering, five replicates
Description: Peptides were dissolved in 1% DMSO in phosphate buffered saline (PBS) to a concentration of 600 µg/ml. Particle size was measured using a Zetasizer Nano ZP instrument (Malvern Instrument, UK) via M3-PALS technique with a 173° backscattering angle, at 25 °C. Measurement was performed in five replicates.

[2] = biological target: Motavizumab (site II specific); experiment: ELISA binding of Motavizumab to plate-coated vaccine constructs, one-site model; parameters: species or system human; conditions: serial dilution of antibody on ELISA plates coated with construct; saturation one-site specific binding model; read-out: Mota kD
Description: (§1) We further tested the ability of site II and site Ø specific antibodies (Motavizumab and D25, respectively) to recognise the peptides and LCP constructs. Dissociation constant (kD) values were derived from a saturation one-site model. D25 clearly recognised the ØLCP2 (66 ± 14 nM) but not ØLCP1 (Fig. 3A). In comparison, in our analysis D25 bound to the native pre-fusion RSV F (FDs-Cav1) with approximately […] stronger avidity (0.92 ± 0.08 nM). Motavizumab bound IILCP4 with the highest avidity (3.8 ± 0.9 nM), while in our analysis Motavizumab bound FDs-Cav1 with approximately 25 fold stronger avidity (0.15 ± 0.01 nM). Motavizumab also recognised IILCP3, 5, 6 and 7 and IIP5 (Fig. 3B). In general binding avidity was stronger for LCP constructs compared to original peptides.
Figure 3 Binding avidity of monoclonal antibodies against vaccine candidates. Antibody binding assessed by serial dilution of antibody on ELISA plates were coated with vaccine constructs and curve fitting by non-linear regression with a one site specific binding model using Graphpad Prism 7 software. (A) D25 antibody recognised ØLCP2 (kD: 66 ± 014 nM) and to a lesser extent ØP2 (kD: 720 ± 036nM). Binding to FDs Cav1 used as positive control (kD: 0.92 ± 00.08 nM). Motavizumab recognised IILCP4 (kD: 3.8 ± 00.9nM), IILCP5 (kD: 16 ± 03nM), IILCP7 (kD: 17 ± 011nM), IIP5 (kD: 23 ± 05nM) and to a lesser extent IILCP6 (kD: 40 ± 04nM). Binding FDs Cav1 was used as a positive control (kD: 0.15 ± 00.01nM).
(§2) An indirect enzyme-linked immunosorbent assay (ELISA) was used to determine the IgG antibody titre. Peptide antigens were used to coat 96-well plates (TITERTEK®) at a concentration of 5 μg/ml in 20 mM sodium carbonate buffer (pH 9.6), overnight at 4 °C. […] Plates were washed as above and secondary antibody binding was detected with the addition of 3,3′,5,5′-Tetramethylbenzidine (TMB) reagent (Thermo Fisher Scientific) at 50 µl/well. Reactions were stopped with 2M H2SO4 (25 µl/well) and absorbance was read at 450 nm on a SpectraMax® 190 (Molecular Devices) microplate reader.

[3] = Secondary structure analysis by circular dichroism; format: physicochemical; conditions: 600 µg/ml; spectra not detected
Description: Conformational studies of constructs were performed using a J-710 spectropolarimeter (Jasco Corporation, Japan). Samples with 600 µg/ml concentration were transferred into a low volume quartz cuvette with 0.1 cm path length. CD spectra were analysed between 250 nm and 190 nm wavelengths. Measurements were performed in triplicate (reported as an average of readings). Spectral results are reported as mean residual ellipticity (θ) versus wavelength (nm).

[4] = test system: relevant antigen (peptide and LCP constructs); experiment: IgG antibody titres in sera of immunised mice against the relevant antigen (ELISA); format: in vivo, C57BL/6 mice; conditions: 30 µg s.c. on day 0, 21, 28, 35, LCP in PBS with 1% DMSO, peptides mixed with PADRE and CFA, ELISA against matched antigen
Description: A total of 70 female C57BL/6 mice (6–8 weeks old) were purchased from the University of Queensland Biological Resources (UQBR), and housed in the AIBN animal house facility. All experimental procedures performed in this study were carried out in accordance with National Health & Medical Research Council guidelines and approved by The University of Queensland Animal Ethics Committee. Mice (n=5 per group) were injected subcutaneously at the tail base on day 0, 21, 28, 35 (Supplementary, Fig S15) with 30 µg of each construct in phosphate-buffered saline (PBS). 1% DMSO was included for LCP constructs to aid solubility. The negative control group were administered with 50 μl of PBS. Control groups included peptides (ØP1,2 and IIP3–5) physically mixed with PADRE (1:1) and emulsified in a total volume of 50 μl of complete Freund’s adjuvant (CFA)-PBS (1:1) for the first immunisation and PADRE-peptide mixture in PBS for subsequent immunisations. […]
as §2, with “titre.” for “titre. Peptide antigens were used to coat 96-well plates (TITERTEK®) at a concentration of 5 μg/ml in 20 mM sodium carbonate buffer (pH 9.6), overnight at 4 °C.”

RSV = RSV plaque reduction neutralisation test (PRNT); format: cell-based, RSV (A2); conditions: purified chimeric recombinant anti-F antibody, Vero cells
Description: Vero cells were seeded in 96-well tissue culture plates (Nunc®) at 4 × 10^4 cells/well in Opti-MEM supplemented with 3% FBS and 100 U penicillin with 100 μg/ml streptomycin. After overnight growth to allow a confluent monolayer, serial dilutions of virus stock were prepared in Opti-MEM (2% FBS and 100 U penicillin with 100 μg/ml streptomycin) and incubated at 37 °C, 5% CO2 for 1 h. Cell monolayers were inoculated with 50 μL of virus and incubated. After 1 h, the inoculum was replaced with overlay medium (Medium 199 with 3% methylcellulose, 2% FBS, 100 U penicillin with 100 μg/ml streptomycin) and incubated at 37 °C for 72 h. Overlay medium was aspirated and cells were fixed (80% acetone) and immunostained with a recombinant anti-RSV monoclonal antibody followed by IRDye® 800CW goat anti-mouse IgG, LI-COR Biosciences (1:2500). Plaques were read using Odyssey® Imager (LI-COR Biosciences) and titre was recorded as PFU/ml.
PRNT assays were performed as previously described. Briefly, pooled Sera was heat inactivated at 56 °C for 30 min. Dilutions of serum were combined with 50 PFU of RSV in serum free Opti-MEM and incubated at 37 °C for 1 h before applying to confluent monolayers of Vero cells in TC96-well plates. Cells were incubated with the serum-virus mixture at 37 °C for 1 h. Inoculum was aspirated and overlay medium was added and cells were incubated at 37 °C for 72 h. […]

[5] = test system: D25 antibody (site Ø specific); experiment: ELISA binding of D25 antibody to plate-coated vaccine constructs, one-site model; parameters: species or system human; conditions: construct coated on plate
Description: as §1
Figure 3 Binding avidity of monoclonal antibodies against vaccine candidates. Antibody binding assessed by serial dilution of antibody on ELISA plates were coated with vaccine constructs and curve fitting by non-linear regression with a one site specific binding model using Graphpad Prism 7 software. […]
An indirect enzyme-linked immunosorbent assay (ELISA) was used to determine the IgG antibody titre. […] Plates were washed as above and secondary antibody binding was detected with the addition of 3,3′,5,5′-Tetramethylbenzidine (TMB) reagent (Thermo Fisher Scientific) at 50 µl/well. […]

Row | Substance | Diameter DLS [1] [nm] | Kd [2] [nM] | antigen specific IgG response in sera (in words) [4] | also measured
1 | I: Ac-[ξGly(tetradecyl)][ξGly(tetradecyl)]LTNSELLSLINDMPITNDQKKLMSNNVQIVRQQS / II: Ac-AKFVAAWTLKAAAKSS[ξGly(tetradecyl)][ξGly(tetradecyl)]-NH2 (amide I:C-II:14) [IILCP7] | 261±20 | 17 ± 11 |  | aggregation under CD measurement condition [3]: aggregation
2 | Ac-LTNSELLSLINDMPITNDQKKLMSNNVQIVRQQS-NH2 [IIP5] |  | 23 ± 5 | higher specific IgG titres; also recorded: strong response | 
3 | I: Ac-LTNSELLSLINDMPITNDQKKLMSNNVQIVRQQS / II: Ac-AKFVAAWTLKAAAKSS[ξGly(tetradecyl)][ξGly(tetradecyl)]-NH2 (amide I:C-II:14) [IILCP5] | 181±25 | 16 ± 3 | higher specific IgG titres; also recorded: robust antibody response | 
4 | Motavizumab |  |  |  | neutralisation of RSV by purified antibody (in words) (RSV): potent neutralisation
5 | KNYIDKQLLPIVNKQS [ØP1] |  |  |  | recognition by D25 (in words) [5]: Neither ØP1 nor ØLCP1 bound to D25

— PMC5593926, “Induction of high titred, non-neutralising antibodies by self-adjuvanting peptide epitopes derived from the respiratory syncytial virus fusion protein” (Scientific Reports, 2017)
